The target of data set [1] is Cyclin-dependent kinase 19 (Homo sapiens) (UniProt Q9BWU1). Put plainly: Inhibition of wild-type human partial length CDK11 (M1 to N360 residues) expressed in bacterial expression system at 1 uM by Kinomescan method relative to control.
The target of data set [2] is Casein kinase I isoform alpha-like (Homo sapiens) (UniProt Q8N752). Put plainly: Inhibition of wild-type human full length CSNK1A1L (M1 to N337 residues) expressed in bacterial expression system at 1 uM by Kinomescan method relative to control.
Data set [3] concerns the target Casein kinase II subunit alpha (Homo sapiens) (UniProt P68400). Put plainly: Inhibition of wild-type human full length CSNK2A1 (M1 to Q391 residues) expressed in mammalian expression system at 1 uM by Kinomescan method relative to control.
Data set [4] addresses Inhibitor of nuclear factor kappa-B kinase subunit beta (Homo sapiens) (UniProt O14920). Put plainly: Inhibition of wild-type human full length IKK-beta (M1 to S756 residues) expressed in mammalian expression system at 1 uM by Kinomescan method relative to control.
Data set [5] deals with Insulin receptor (Homo sapiens) (UniProt P06213). Put plainly: Inhibition of wild-type human partial length INSR (P997 to E1318 residues) expressed in mammalian expression system at 1 uM by Kinomescan method relative to control.
The target of data set [6] is Mitogen-activated protein kinase 9 (Homo sapiens) (UniProt P45984). Put plainly: Inhibition of wild-type human full length JNK2 (M1 to Q382 residues) expressed in mammalian expression system at 1 uM by Kinomescan method relative to control.
Data set [7] relates to Mast/stem cell growth factor receptor Kit (Homo sapiens), P10721 [L576P]. Put plainly: Inhibition of human partial length KIT L576P mutant (Y545 to D952 residues) expressed in bacterial expression system at 1 uM by Kinomescan method relative to control.
Data set [8] concerns the target Mitogen-activated protein kinase kinase kinase 4 (Homo sapiens) (UniProt Q9Y6R4). Put plainly: Inhibition of wild-type human partial length MAP3K4 (G1319 to E1608 residues) expressed in bacterial expression system at 1 uM by Kinomescan method relative to control.
Data set [9] concerns the target cAMP-dependent protein kinase catalytic subunit alpha (Homo sapiens) (UniProt P17612). Put plainly: Inhibition of wild-type human partial length PKAC-alpha (G10 to F351 residues) expressed in bacterial expression system at 1 uM by Kinomescan method relative to control.
Data set [10] deals with Serine/threonine-protein kinase RIO1 (Homo sapiens) (UniProt Q9BRS2). Put plainly: Inhibition of wild-type human full length RIOK1 (M1 to K568 residues) expressed in bacterial expression system at 1 uM by Kinomescan method relative to control.
The target in data set [11] is Ribosomal protein S6 kinase alpha-1 (Homo sapiens) (UniProt Q15418). Put plainly: Inhibition of wild-type human partial length C-terminal RSK1 kinase domain 2 (P360 to L681 residues) expressed in bacterial expression system at 1 uM by Kinomescan method relative to control.
For data set [12], the target named is Angiopoietin-1 receptor (Homo sapiens) (UniProt Q02763). Put plainly: Inhibition of wild-type human partial length TIE2 (N804 to T1112 residues) expressed in bacterial expression system at 1 uM by Kinomescan method relative to control.
Data set [13] deals with TRAF2 and NCK-interacting protein kinase (Homo sapiens) (UniProt Q9UKE5). Put plainly: Inhibition of wild-type human partial length TNIK (D4 to K311 residues) expressed in bacterial expression system at 1 uM by Kinomescan method relative to control.
For data set [14], the target named is Testis-specific serine/threonine-protein kinase 1 (Homo sapiens) (UniProt Q9BXA7). Put plainly: Inhibition of wild-type human full length TSSK1B (M1 to Q367 residues) expressed in bacterial expression system at 1 uM by Kinomescan method relative to control.
Data set [15] can be described thus: Lipophilicity, log D of the compound. In kind it is physicochemical. The following applies: octanol/water.
Data set [16] can be described thus: Aqueous kinetic solubility of the compound at pH 6.8 by shake flask assay. The following applies: read-out: Kinetic_solubility. In kind it is physicochemical.
The target in data set [17] is 5'-AMP-activated protein kinase catalytic subunit alpha-1 (Homo sapiens) (UniProt Q13131). Put plainly: Inhibition of wild-type human partial length AMPK alpha1 (M1 to E306 residues) expressed in bacterial expression system at 10 uM by Kinomescan method relative to control.
Data set [18] deals with Tyrosine-protein kinase receptor UFO (Homo sapiens) (UniProt P30530). Put plainly: Inhibition of wild-type human partial length AXL (R497 to Y821 residues) expressed in bacterial expression system at 10 uM by Kinomescan method relative to control.
Data set [19] has as its target Calcium/calmodulin-dependent protein kinase type IV (Homo sapiens) (UniProt Q16566). Put plainly: Inhibition of wild-type human partial length CAMK4 (A22 to A322 residues) expressed in bacterial expression system at 10 uM by Kinomescan method relative to control.
For data set [20], the target named is Focal adhesion kinase 1 (Homo sapiens) (UniProt Q05397). Put plainly: Inhibition of wild-type human partial length FAK (D402 to R696 residues) expressed in bacterial expression system at 10 uM by Kinomescan method relative to control.
For data set [21], the target named is MAP/microtubule affinity-regulating kinase 4 (Homo sapiens) (UniProt Q96L34). Put plainly: Inhibition of wild-type human partial length MARK4 (K29 to G340 residues) expressed in bacterial expression system at 10 uM by Kinomescan method relative to control.
Data set [22] concerns the target Tyrosine-protein kinase Mer (Homo sapiens) (UniProt Q12866). Put plainly: Inhibition of wild-type human partial length MERTK (R557 to L884 residues) expressed in bacterial expression system at 10 uM by Kinomescan method relative to control.
The target of data set [23] is Serine/threonine-protein kinase Nek4 (Homo sapiens) (UniProt P51957). Put plainly: Inhibition of wild-type human full length NEK4 (M1 to F841 residues) expressed in mammalian expression system at 10 uM by Kinomescan method relative to control.
For data set [24], the target named is Mitogen-activated protein kinase 14 (Homo sapiens) (UniProt Q16539). Put plainly: Inhibition of wild-type human full length p38-alpha (M1 to S360 residues) expressed in bacterial expression system at 10 uM by Kinomescan method relative to control.
In data set [25] the target is Serine/threonine-protein kinase PAK 2 (Homo sapiens) (UniProt Q13177). Put plainly: Inhibition of wild-type human partial length PAK2 (P151 to R525 residues) expressed in bacterial expression system at 10 uM by Kinomescan method relative to control.
The target in data set [26] is Cyclin-dependent kinase 2 homolog (Plasmodium falciparum (isolate 3D7)) (UniProt P61075). Put plainly: Inhibition of wild-type Plasmodium falciparum full length PK5 (M1 to N288 residues) expressed in mammalian expression system at 10 uM by Kinomescan method relative to control.
Data set [27] has as its target Phosphatidylinositol 4,5-bisphosphate 3-kinase catalytic subunit delta isoform (Homo sapiens) (UniProt O00329). Put plainly: Inhibition of wild-type human partial length PIK3CD (R108 to Q1044 residues) expressed in mammalian expression system at 10 uM by Kinomescan method relative to control.
Data set [28] addresses Tyrosine-protein kinase ZAP-70 (Homo sapiens) (UniProt P43403). Put plainly: Inhibition of wild-type human partial length ZAP70 (D20 to G299 residues) expressed in mammalian expression system at 10 uM by Kinomescan method relative to control.

Converted amounts (≈) assume the structure as drawn.

A word on the inhibition: it is the drop in the measured response relative to a control, in per cent. As a reminder, the logD is the decadic logarithm of the distribution of all forms, ionised or not, between an organic phase and buffer at a given pH. The low end stands for lower lipophilicity, the high end for higher lipophilicity.

Sequence of Mitogen-activated protein kinase kinase kinase 4 (Homo sapiens) (Q9Y6R4 whole entry, the tested form may be a part): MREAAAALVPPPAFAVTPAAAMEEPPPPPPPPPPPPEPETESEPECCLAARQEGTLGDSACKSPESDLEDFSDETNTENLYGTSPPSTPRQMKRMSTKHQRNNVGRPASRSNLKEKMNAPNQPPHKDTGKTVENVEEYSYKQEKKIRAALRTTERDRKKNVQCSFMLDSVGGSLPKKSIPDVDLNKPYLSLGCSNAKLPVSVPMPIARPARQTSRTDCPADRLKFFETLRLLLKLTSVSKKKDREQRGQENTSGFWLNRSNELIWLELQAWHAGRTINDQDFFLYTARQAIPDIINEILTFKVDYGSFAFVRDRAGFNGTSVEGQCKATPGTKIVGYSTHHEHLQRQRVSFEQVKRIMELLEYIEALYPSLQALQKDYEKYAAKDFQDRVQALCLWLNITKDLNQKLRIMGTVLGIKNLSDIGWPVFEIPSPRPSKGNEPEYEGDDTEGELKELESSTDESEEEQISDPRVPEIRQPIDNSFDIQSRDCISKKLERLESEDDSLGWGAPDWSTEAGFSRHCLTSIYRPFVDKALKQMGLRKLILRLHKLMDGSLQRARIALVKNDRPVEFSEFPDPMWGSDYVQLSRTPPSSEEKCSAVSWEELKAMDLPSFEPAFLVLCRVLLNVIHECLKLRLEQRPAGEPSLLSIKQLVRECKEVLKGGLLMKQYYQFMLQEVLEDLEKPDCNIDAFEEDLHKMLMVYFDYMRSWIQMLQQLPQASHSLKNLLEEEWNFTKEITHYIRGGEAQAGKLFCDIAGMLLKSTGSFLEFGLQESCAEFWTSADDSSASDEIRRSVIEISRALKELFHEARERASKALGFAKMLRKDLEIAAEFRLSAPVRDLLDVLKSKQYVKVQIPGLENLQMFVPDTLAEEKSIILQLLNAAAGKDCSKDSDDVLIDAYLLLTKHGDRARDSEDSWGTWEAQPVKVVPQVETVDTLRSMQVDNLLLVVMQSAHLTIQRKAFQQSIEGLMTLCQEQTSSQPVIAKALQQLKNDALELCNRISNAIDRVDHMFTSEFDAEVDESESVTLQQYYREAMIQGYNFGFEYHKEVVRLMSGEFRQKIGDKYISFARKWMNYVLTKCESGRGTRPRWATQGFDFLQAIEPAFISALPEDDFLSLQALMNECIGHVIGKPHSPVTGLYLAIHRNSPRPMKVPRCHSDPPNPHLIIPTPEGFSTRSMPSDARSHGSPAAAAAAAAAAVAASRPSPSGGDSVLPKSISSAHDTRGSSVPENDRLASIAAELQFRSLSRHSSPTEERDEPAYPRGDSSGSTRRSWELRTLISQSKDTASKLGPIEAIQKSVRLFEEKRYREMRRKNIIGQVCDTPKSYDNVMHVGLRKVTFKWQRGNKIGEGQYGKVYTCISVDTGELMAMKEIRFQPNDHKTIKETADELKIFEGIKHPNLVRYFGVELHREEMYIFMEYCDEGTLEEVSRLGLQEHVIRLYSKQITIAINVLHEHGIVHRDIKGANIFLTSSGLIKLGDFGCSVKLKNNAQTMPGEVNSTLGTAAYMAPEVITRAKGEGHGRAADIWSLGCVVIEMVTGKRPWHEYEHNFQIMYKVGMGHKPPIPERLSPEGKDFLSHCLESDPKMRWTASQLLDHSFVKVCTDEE
Sequence of Cyclin-dependent kinase 19 (Homo sapiens) (Q9BWU1 whole entry, the tested form may be a part, canonical isoform): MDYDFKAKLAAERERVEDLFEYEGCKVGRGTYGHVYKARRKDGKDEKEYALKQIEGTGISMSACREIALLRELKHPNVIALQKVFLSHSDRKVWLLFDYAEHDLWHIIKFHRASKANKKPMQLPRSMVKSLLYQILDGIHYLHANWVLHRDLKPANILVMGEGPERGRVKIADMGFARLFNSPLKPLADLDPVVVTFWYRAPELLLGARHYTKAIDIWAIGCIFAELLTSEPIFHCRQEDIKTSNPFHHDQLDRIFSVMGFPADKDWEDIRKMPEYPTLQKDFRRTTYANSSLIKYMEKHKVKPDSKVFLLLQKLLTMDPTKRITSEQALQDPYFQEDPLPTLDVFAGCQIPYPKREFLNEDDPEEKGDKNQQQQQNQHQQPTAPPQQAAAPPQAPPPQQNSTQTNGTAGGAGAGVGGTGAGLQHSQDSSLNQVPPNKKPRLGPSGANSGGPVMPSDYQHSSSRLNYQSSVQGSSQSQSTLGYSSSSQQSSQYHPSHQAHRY
Sequence of Focal adhesion kinase 1 (Homo sapiens) (Q05397 2-1052 limits assumed): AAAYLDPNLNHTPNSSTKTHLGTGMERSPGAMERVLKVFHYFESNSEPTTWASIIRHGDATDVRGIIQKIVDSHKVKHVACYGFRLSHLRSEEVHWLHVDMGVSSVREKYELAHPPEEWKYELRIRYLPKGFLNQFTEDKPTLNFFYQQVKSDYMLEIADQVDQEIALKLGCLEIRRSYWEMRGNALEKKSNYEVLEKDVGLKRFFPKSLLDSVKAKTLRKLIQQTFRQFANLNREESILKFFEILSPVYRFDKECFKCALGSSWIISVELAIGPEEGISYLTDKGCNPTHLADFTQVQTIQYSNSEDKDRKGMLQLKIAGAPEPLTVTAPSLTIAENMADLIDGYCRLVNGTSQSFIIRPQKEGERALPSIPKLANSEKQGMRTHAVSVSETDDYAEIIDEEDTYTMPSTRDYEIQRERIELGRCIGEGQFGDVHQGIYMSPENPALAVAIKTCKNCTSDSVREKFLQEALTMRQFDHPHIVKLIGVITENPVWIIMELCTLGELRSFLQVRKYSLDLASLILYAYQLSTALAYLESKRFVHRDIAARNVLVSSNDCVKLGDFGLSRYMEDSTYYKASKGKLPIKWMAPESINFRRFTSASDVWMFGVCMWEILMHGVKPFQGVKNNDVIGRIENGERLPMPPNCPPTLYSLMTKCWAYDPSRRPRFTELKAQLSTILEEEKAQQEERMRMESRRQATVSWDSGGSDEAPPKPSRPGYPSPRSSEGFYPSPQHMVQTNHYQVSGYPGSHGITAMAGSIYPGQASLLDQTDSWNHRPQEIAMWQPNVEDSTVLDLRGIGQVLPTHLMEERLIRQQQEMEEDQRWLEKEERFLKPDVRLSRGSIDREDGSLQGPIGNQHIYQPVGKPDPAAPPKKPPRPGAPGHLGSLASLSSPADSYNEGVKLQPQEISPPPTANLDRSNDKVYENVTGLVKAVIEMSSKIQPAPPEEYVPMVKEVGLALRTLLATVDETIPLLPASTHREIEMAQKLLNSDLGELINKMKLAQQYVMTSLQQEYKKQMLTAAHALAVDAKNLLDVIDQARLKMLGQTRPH
Sequence of Mast/stem cell growth factor receptor Kit (Homo sapiens), P10721 [L576P] (P10721 whole entry L576P, the tested form may be a part): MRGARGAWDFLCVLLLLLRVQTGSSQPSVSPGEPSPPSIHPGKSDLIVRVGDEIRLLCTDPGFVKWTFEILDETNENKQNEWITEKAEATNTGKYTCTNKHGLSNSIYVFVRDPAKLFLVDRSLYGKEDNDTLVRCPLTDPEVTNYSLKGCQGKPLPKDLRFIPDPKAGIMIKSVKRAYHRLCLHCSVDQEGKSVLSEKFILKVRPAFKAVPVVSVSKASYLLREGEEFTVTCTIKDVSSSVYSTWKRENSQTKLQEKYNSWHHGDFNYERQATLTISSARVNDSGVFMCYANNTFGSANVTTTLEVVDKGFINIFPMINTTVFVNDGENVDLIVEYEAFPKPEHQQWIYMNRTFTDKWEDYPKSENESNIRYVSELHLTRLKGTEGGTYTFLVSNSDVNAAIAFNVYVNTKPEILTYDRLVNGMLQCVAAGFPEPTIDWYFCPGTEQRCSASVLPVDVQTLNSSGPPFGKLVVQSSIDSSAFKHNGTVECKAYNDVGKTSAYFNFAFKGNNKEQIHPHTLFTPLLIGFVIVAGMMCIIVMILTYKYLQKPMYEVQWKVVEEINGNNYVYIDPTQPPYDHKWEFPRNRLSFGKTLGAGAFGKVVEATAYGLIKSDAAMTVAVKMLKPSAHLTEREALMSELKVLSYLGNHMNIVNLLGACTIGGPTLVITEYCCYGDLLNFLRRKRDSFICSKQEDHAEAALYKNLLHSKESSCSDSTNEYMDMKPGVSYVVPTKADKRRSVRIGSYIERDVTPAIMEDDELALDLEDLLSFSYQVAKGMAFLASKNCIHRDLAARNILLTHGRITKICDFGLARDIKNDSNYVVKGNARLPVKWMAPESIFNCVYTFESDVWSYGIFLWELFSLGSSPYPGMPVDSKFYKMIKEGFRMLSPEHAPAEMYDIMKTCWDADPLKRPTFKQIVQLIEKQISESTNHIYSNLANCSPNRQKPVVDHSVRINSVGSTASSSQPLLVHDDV
Sequence of Testis-specific serine/threonine-protein kinase 1 (Homo sapiens) (Q9BXA7 whole entry, the tested form may be a part): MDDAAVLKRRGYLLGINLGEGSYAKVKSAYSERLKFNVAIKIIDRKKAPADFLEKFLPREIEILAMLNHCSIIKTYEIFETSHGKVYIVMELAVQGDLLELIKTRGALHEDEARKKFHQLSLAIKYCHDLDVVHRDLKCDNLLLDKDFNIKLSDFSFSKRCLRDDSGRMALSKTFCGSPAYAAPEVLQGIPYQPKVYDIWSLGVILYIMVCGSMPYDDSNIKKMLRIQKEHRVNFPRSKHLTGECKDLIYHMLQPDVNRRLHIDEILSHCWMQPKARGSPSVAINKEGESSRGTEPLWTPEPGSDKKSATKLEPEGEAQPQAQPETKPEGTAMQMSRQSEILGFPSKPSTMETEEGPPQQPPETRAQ
Sequence of Serine/threonine-protein kinase PAK 2 (Homo sapiens) (Q13177 whole entry, the tested form may be a part): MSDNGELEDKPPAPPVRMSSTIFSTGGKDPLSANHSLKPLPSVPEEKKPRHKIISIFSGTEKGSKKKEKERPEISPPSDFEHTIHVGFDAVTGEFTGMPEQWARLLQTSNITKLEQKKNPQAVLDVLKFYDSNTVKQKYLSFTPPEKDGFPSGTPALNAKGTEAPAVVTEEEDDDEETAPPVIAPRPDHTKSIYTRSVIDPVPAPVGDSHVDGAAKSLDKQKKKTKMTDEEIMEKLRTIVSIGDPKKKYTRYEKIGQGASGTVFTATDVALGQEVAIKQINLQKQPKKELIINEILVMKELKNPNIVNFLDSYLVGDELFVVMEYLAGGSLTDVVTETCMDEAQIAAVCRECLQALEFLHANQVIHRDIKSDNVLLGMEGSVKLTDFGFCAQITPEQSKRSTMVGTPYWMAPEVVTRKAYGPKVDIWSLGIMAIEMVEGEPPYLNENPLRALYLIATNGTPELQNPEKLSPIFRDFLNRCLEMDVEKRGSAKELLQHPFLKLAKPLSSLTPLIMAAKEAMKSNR

Take `O=C(Nc1cccc([C@@H]2CN(c3ncnc4[nH]ccc34)CCN2CCO)c1)Nc1c(F)cccc1N1CCCC1`: the inhibition in data set [1] turned out to be 100%; in data set [2], 100%; in data set [3] it was 93%; in [4], 74%; in [5], 100%; in [6] it was 100%. In addition, the inhibition in [7] was determined as 35%; in data set [8] it was 100%; in data set [9], 76%; in [10], 33%; in [11] it was 88%; in data set [12], 99%. The inhibition in data set [13] stood at 81%; in data set [14], 100%. Also, the pH-dependent lipophilicity (logD) in [15] came out at 2.6. For the same compound, the solubility kinetic in [16] came to 8 µg/mL (≈ 14.7 µM).
Turning to `O=C(Nc1cccc([C@H]2CCCN(c3ncnc4[nH]ccc34)C2)c1)Nc1ccccc1N1CCCC1`, the inhibition in data set [17] worked out at 6.6%; in data set [18] it was 16%; in data set [19], 100%; in data set [20], 90%; in data set [21], 87%; in [22], 31%. Moreover, the inhibition in [23] was 87%; in data set [24], 100%; in data set [25], 88%; in [26] it was 93%; in data set [27] it was 99%; in [28], 75%.

The values are drawn from ChEMBL document CHEMBL4387741, “Optimization of novel reversible Bruton's tyrosine kinase inhibitors identified using Tethering-fragment-based screens” (Bioorg Med Chem, 2019).
